{"source": "patent US9776995B2", "about": "“Bicyclic sulfonamide compounds as sodium channel inhibitors” (AMGEN INC., priority 2013, dated 2017)", "molecular_target": "Nav 1.7 (Homo sapiens (Human), UniProt Q15858)", "sequence (Q15858 whole entry)": "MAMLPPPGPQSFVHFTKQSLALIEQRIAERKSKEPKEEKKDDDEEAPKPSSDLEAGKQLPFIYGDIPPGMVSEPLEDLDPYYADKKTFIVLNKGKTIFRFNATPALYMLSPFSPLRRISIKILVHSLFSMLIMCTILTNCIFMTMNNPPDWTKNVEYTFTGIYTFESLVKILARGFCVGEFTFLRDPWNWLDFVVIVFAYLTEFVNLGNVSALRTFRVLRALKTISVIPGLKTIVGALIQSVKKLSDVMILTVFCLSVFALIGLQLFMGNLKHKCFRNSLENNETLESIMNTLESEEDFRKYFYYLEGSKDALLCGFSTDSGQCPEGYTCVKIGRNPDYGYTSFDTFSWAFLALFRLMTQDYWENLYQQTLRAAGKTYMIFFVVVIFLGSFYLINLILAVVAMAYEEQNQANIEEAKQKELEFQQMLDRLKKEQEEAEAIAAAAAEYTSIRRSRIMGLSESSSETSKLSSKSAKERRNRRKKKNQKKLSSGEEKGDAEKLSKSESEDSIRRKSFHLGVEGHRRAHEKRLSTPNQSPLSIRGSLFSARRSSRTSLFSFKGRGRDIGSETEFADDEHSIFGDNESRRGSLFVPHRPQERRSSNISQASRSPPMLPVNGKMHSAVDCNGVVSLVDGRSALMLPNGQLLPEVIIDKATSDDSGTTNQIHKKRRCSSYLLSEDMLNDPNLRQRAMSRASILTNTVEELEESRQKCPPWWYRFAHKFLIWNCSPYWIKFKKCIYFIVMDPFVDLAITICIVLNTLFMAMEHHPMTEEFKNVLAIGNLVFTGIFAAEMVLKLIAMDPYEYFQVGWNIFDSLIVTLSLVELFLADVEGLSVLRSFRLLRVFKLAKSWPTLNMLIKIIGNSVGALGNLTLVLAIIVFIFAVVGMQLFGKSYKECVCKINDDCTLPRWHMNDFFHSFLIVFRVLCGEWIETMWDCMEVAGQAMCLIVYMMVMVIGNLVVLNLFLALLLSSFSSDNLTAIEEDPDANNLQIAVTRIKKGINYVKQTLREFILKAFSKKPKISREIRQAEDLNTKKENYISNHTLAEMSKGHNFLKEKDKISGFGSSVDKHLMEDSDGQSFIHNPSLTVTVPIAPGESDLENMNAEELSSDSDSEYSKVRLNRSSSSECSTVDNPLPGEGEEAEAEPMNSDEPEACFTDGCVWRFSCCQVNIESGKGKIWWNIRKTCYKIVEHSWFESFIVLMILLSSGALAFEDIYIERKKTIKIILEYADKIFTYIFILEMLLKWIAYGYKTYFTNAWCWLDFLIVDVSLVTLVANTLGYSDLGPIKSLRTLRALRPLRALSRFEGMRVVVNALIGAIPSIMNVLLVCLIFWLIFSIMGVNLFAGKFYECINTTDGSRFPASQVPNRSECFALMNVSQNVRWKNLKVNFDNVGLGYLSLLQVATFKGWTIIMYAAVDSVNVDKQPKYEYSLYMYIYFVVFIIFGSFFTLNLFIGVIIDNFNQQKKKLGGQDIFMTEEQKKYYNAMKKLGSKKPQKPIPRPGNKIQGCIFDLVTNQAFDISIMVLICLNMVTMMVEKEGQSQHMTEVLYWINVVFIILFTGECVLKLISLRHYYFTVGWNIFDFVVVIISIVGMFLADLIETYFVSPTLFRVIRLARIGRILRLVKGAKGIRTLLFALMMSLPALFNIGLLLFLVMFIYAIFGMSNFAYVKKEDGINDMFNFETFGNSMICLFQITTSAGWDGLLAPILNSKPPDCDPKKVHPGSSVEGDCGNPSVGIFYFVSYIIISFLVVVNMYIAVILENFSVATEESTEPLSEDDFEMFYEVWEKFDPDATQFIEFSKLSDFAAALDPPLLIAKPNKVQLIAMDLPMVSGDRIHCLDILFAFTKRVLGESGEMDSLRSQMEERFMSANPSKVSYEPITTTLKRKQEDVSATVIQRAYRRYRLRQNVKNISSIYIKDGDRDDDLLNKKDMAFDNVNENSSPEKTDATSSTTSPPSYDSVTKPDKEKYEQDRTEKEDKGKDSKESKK", "assay": "in-vitro Nav 1.7 PX data", "format": "cell-based", "data": [{"smiles": "COc1cc(C#N)c(-c2cc(F)cc(F)c2)cc1-c1nccc2cc(S(=O)(=O)Nc3ccncn3)ccc12", "note": "[Example 145, 1-(6-cyano-3′,5′-difluoro-4-methoxy-3-biphenylyl)-N-4-pyrimidinyl-6-isoquinolinesulfonamide]", "values": [{"measurement": "IC50", "setting": "in-vitro Nav 1.7 PX data", "result": 9110, "unit": "nM"}]}, {"smiles": "COc1cc(-c2cccc(C(F)(F)F)c2)c(C#N)cc1-c1nccc2cc(S(=O)(=O)Nc3ccon3)ccc12", "note": "[Example 148, 1-(2-cyano-5-methoxy-3′-(trifluoromethyl)-4-biphenylyl)-N-3-isoxazolyl-6-isoquinolinesulfonamide]", "values": [{"measurement": "IC50", "setting": "in-vitro Nav 1.7 PX data", "result": 28.6, "unit": "nM"}]}, {"smiles": "COc1cc(NS(=O)(=O)c2ccc3c(-c4ccc(-c5cc(F)cc(F)c5)cc4OC)nccc3c2)no1", "note": "[Example 149, 1-(3′,5′-difluoro-3-methoxy-4-biphenylyl)-N-(5-methoxy-3-isoxazolyl)-6-isoquinolinesulfonamide]", "values": [{"measurement": "IC50", "setting": "in-vitro Nav 1.7 PX data", "result": 1460, "unit": "nM"}]}, {"smiles": "COc1cc(C#N)c(-c2cc(F)cc(F)c2)cc1-c1nccc2cc(S(=O)(=O)Nc3nncs3)ccc12", "note": "[Example 150, 1-(6-cyano-3′,5′-difluoro-4-methoxy-3-biphenylyl)-N-1,3,4-thiadiazol-2-yl-6-isoquinolinesulfonamide]", "values": [{"measurement": "IC50", "setting": "in-vitro Nav 1.7 PX data", "result": 6000, "unit": "nM"}]}, {"smiles": "COc1ncc(-c2ccccc2)cc1-c1nccc2cc(S(=O)(=O)Nc3ccncn3)ccc12", "note": "[Example 152, 1-(2-methoxy-5-phenyl-3-pyridinyl)-N-4-pyrimidinyl-6-isoquinolinesulfonamide]", "values": [{"measurement": "IC50", "setting": "in-vitro Nav 1.7 PX data", "result": 2440, "unit": "nM"}]}, {"smiles": "Cc1ccc(OCC2CC2)cc1-c1nccc2cc(S(=O)(=O)Nc3ccncn3)ccc12", "note": "[Example 153, 1-(5-(cyclopropylmethoxy)-2-methylphenyl)-N-4-pyrimidinyl-6-isoquinolinesulfonamide]", "values": [{"measurement": "IC50", "setting": "in-vitro Nav 1.7 PX data", "result": 7680, "unit": "nM"}]}, {"smiles": "COc1cc(-c2cccnc2OC)ccc1-c1nccc2cc(S(=O)(=O)Nc3nncs3)ccc12", "note": "[Example 166, 1-(2-methoxy-4-(2-methoxy-3-pyridinyl)phenyl)-N-1,3,4-thiadiazol-2-yl-6-isoquinolinesulfonamide]", "values": [{"measurement": "IC50", "setting": "in-vitro Nav 1.7 PX data", "result": 794, "unit": "nM"}]}, {"smiles": "COc1cc(-c2nccc3cc(S(=O)(=O)Nc4ccon4)ccc23)c(C)cc1-c1cccc(F)c1", "note": "[Example 167, 1-(3′-fluoro-2-methoxy-5-methyl-4-biphenylyl)-N-3-isoxazolyl-6-isoquinolinesulfonamide]", "values": [{"measurement": "IC50", "setting": "in-vitro Nav 1.7 PX data", "result": 2720, "unit": "nM"}]}, {"smiles": "COc1ccc(F)cc1-c1cc(C)c(-c2ncnc3cc(S(=O)(=O)Nc4ccon4)ccc23)cc1OC", "note": "[Example 168, 4-(5′-fluoro-2,2′-dimethoxy-5-methyl-4-biphenylyl)-N-3-isoxazolyl-7-quinazolinesulfonamide]", "values": [{"measurement": "IC50", "setting": "in-vitro Nav 1.7 PX data", "result": 8540, "unit": "nM"}]}, {"smiles": "COc1cc(C(F)F)c(Cl)cc1-c1nccc2cc(S(=O)(=O)Nc3ccon3)ccc12", "note": "[Example 169, 1-(5-chloro-4-(difluoromethyl)-2-methoxyphenyl)-N-3-isoxazolyl-6-isoquinolinesulfonamide]", "values": [{"measurement": "IC50", "setting": "in-vitro Nav 1.7 PX data", "result": 104, "unit": "nM"}]}, {"smiles": "COc1ccc(C)c(-c2cc(C)c(-c3ncnc4cc(S(=O)(=O)Nc5ccon5)ccc34)cc2OC)c1", "note": "[Example 173, 4-(2,5′-dimethoxy-2′,5-dimethyl-4-biphenylyl)-N-3-isoxazolyl-7-quinazolinesulfonamide]", "values": [{"measurement": "IC50", "setting": "in-vitro Nav 1.7 PX data", "result": 3840, "unit": "nM"}]}, {"smiles": "COc1cc(Oc2cc(F)cc(F)c2)ccc1-c1nccc2cc(S(=O)(=O)Nc3ccncn3)ccc12", "note": "[Example 178, 1-(4-(3,5-difluorophenoxy)-2-methoxyphenyl)-N-4-pyrimidinyl-6-isoquinolinesulfonamide]", "values": [{"measurement": "IC50", "setting": "in-vitro PX (PatchXpress) data", "result": 18700, "unit": "nM"}]}, {"smiles": "O=S(=O)(Nc1nncs1)c1ccc2c(-c3ccc(C(F)(F)F)cc3C3CC3)ncnc2c1", "note": "[Example 192, 4-(2-cyclopropyl-4-(trifluoromethyl)phenyl)-N-1,3,4-thiadiazol-2-yl-7-quinazolinesulfonamide]", "values": [{"measurement": "IC50", "setting": "in-vitro PX (PatchXpress) data", "result": 4940, "unit": "nM"}]}, {"smiles": "COc1cc(-c2cccnc2OC(F)F)ccc1-c1nccc2cc(S(=O)(=O)Nc3nncs3)ccc12", "note": "[Example 193, 1-(4-(2-(difluoromethoxy)-3-pyridinyl)-2-methoxyphenyl)-N-1,3,4-thiadiazol-2-yl-6-isoquinolinesulfonamide]", "values": [{"measurement": "IC50", "setting": "in-vitro PX (PatchXpress) data", "result": 871, "unit": "nM"}]}, {"smiles": "COc1cc(Oc2ccc(F)cn2)ccc1-c1nccc2cc(S(=O)(=O)Nc3ccon3)ccc12", "note": "[Example 195, 1-(4-((5-fluoro-2-pyridinyl)oxy)-2-methoxyphenyl)-N-3-isoxazolyl-6-isoquinolinesulfonamide]", "values": [{"measurement": "IC50", "setting": "in-vitro PX (PatchXpress) data", "result": 1610, "unit": "nM"}]}, {"smiles": "COc1ccc(-c2ccc(-c3nccc4cc(S(=O)(=O)Nc5nncs5)ccc34)c(OC)c2)c(F)n1", "note": "[Example 196, 1-(4-(2-fluoro-6-methoxy-3-pyridinyl)-2-methoxyphenyl)-N-1,3,4-thiadiazol-2-yl-6-isoquinolinesulfonamide]", "values": [{"measurement": "IC50", "setting": "in-vitro PX (PatchXpress) data", "result": 1050, "unit": "nM"}]}, {"smiles": "COc1cc(-c2ccc(Cl)c(C)c2)c(Cl)cc1-c1ncnc2cc(S(=O)(=O)Nc3ccon3)ccc12", "note": "[Example 204, 4-(2,4′-dichloro-5-methoxy-3′-methyl-4-biphenylyl)-N-3-isoxazolyl-7-quinazolinesulfonamide]", "values": [{"measurement": "IC50", "setting": "in-vitro PX", "result": 21.8, "unit": "nM"}]}, {"smiles": "COc1cc(-c2cc(F)cc(F)c2)c(Cl)cc1-c1ncnc2cc(S(=O)(=O)Nc3ccon3)ccc12", "note": "[Example 206, 4-(2-chloro-3′,5′-difluoro-5-methoxy-4-biphenylyl)-N-3-isoxazolyl-7-quinazolinesulfonamide]", "values": [{"measurement": "IC50", "setting": "in-vitro PX", "result": 14.5, "unit": "nM"}]}, {"smiles": "COc1cc(-c2cccc(F)c2)c(Cl)cc1-c1ncnc2cc(S(=O)(=O)Nc3cnsn3)ccc12", "note": "[Example 207, 4-(2-chloro-3′-fluoro-5-methoxy-4-biphenylyl)-N-1,2,5-thiadiazol-3-yl-7-quinazolinesulfonamide]", "values": [{"measurement": "IC50", "setting": "in-vitro PX", "result": 51.5, "unit": "nM"}]}, {"smiles": "COc1cc(-c2cccc(F)c2)ccc1-c1ccnc2cc(S(=O)(=O)Nc3nncs3)ccc12", "note": "[Example 210, 4-(3′-fluoro-3-methoxy-4-biphenylyl)-N-1,3,4-thiadiazol-2-yl-7-quinolinesulfonamide]", "values": [{"measurement": "IC50", "setting": "in-vitro PX", "result": 1050, "unit": "nM"}]}, {"smiles": "COc1cc(-c2cccc(F)n2)c(F)cc1-c1nccc2cc(S(=O)(=O)Nc3nncs3)ccc12", "note": "[Example 212, 1-(5-fluoro-4-(6-fluoro-2-pyridinyl)-2-methoxyphenyl)-N-1,3,4-thiadiazol-2-yl-6-isoquinolinesulfonamide]", "values": [{"measurement": "IC50", "setting": "in-vitro PX", "result": 1370, "unit": "nM"}]}, {"smiles": "COc1cc(-c2ccc(F)c(C)c2)c(Cl)cc1-c1ncnc2cc(S(=O)(=O)Nc3ccon3)ccc12", "note": "[Example 213, 4-(2-chloro-4′-fluoro-5-methoxy-3′-methyl-4-biphenylyl)-N-3-isoxazolyl-7-quinazolinesulfonamide]", "values": [{"measurement": "IC50", "setting": "in-vitro PX", "result": 38.2, "unit": "nM"}]}, {"smiles": "COc1cc(-c2cc(F)cnc2OC)c(Cl)cc1-c1ncnc2cc(S(=O)(=O)Nc3ccon3)ccc12", "note": "[Example 214, 4-(5-chloro-4-(5-fluoro-2-methoxy-3-pyridinyl)-2-methoxyphenyl)-N-3-isoxazolyl-7-quinazolinesulfonamide]", "values": [{"measurement": "IC50", "setting": "in-vitro PX", "result": 19.8, "unit": "nM"}]}, {"smiles": "COc1cc(-c2cccc(F)c2)c(Cl)cc1-c1n[nH]c(=O)c2cc(S(=O)(=O)Nc3ccon3)ccc12", "note": "[Example 232, 1-(2-chloro-3′-fluoro-5-methoxy-4-biphenylyl)-N-3-isoxazolyl-4-oxo-3,4-dihydro-6-phthalazinesulfonamide]", "values": [{"measurement": "IC50", "setting": "in-vitro PX", "result": 126, "unit": "nM"}]}, {"smiles": "COc1nc(Cl)c(Cl)cc1-c1nccc2cc(S(=O)(=O)Nc3nncs3)ccc12", "note": "[Example 240, 1-(5,6-dichloro-2-methoxy-3-pyridinyl)-N-1,3,4-thiadiazol-2-yl-6-isoquinolinesulfonamide]", "values": [{"measurement": "IC50", "setting": "in-vitro PX", "result": 1870, "unit": "nM"}]}, {"smiles": "COc1nc(N(C)C)c(Cl)cc1-c1nccc2cc(S(=O)(=O)Nc3nncs3)ccc12", "note": "[Example 242, 1-(5-chloro-6-(dimethylamino)-2-methoxy-3-pyridinyl)-N-1,3,4-thiadiazol-2-yl-6-isoquinolinesulfonamide]", "values": [{"measurement": "IC50", "setting": "in-vitro PX", "result": 1870, "unit": "nM"}]}]}
